Test results published in the supplement of paper PMC10307832.

Compound: C(C(=O)C(=O)O)Br [Bromopyruvate] + C[C@]1(O)C[C@@H](c2nc(-c3ccc4ccc(-c5ccccc5)nc4c3)c3c(N)nccn32)C1 [Linsitinib] (partner 1 µM)
Experiment: relative viability (nuclei count vs DMSO), 5 days (fraction); higher = more cells survive
Conditions: first compound 1 µM
Outline: (§1)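 Nuclei were stained with Hoechst during a one-step fixation (final 0.05% Triton X-100, 1% formaldehyde, 1 ug/ml Hoechst) carried out 5 days after dosing, then counted on 4× images. The cells, lung cancer lines in 1536-well plates, had been dosed by pin tool the day after seeding with one drug alone or a fixed anchor-drug dose plus five library-drug doses (not always all listed) in √10 steps. Relative viability is the nuclei count in treated wells divided by that in vehicle wells, and each value is the median of duplicate plates.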

Cell Line	relative viability
CAL-12T	0.789
NCI-H1651	0.876
EPLC-272H	1.06
NCI-H23	0.484
NCI-H1792	0.538
NCI-H1355	0.778
NCI-H322M	0.869
NCI-H1437	1.02
NCI-H1755	1.01
NCI-H2085	0.984
HCC-15	0.84
PC-3 [JPC-3]	1.02
EKVX	0.905
LC-2-ad	0.825
NCI-H1563	1.19
NCI-H1944	1.27
NCI-H1975	0.877

Same assay, conditions: first compound 3.162 µM

Cell Line	relative viability
HARA	1.01
HCC-78	0.603
NCI-H2023	0.72
A-427	1.05
NCI-H460	0.832
NCI-H727	0.495
NCI-H1734	0.949
NCI-H520	1.09
NCI-H2405	0.948
SW 1573	0.842
201T	1.07
NCI-H1915	1.15
HCC-827	0.932
LXF-289	0.969
NCI-H2347	0.989
NCI-H650	0.976
CAL-12T	0.732

Cell Line	relative viability
NCI-H1651	0.98
EPLC-272H	1.14
NCI-H23	0.584
NCI-H1792	0.533
NCI-H1355	0.772
NCI-H322M	0.913
NCI-H1437	1.03
NCI-H1755	1.03
NCI-H2085	1.04
HCC-15	0.867
PC-3 [JPC-3]	0.975
EKVX	1.02
LC-2-ad	0.93
NCI-H1563	1.42
NCI-H1944	1.31
NCI-H1975	1.12

Same assay, conditions: first compound 10 µM

Cell Line	relative viability
HARA	1.01
HCC-78	0.575
LCLC-97TM1	0.22
NCI-H2023	0.682
A-427	1.03
NCI-H460	1.09
NCI-H727	0.296
NCI-H1734	0.989
NCI-H520	1.11
NCI-H2405	1.11
SW 1573	0.794
201T	1.06
NCI-H1915	1.09
HCC-827	0.926
LXF-289	0.981
NCI-H2347	1.21
NCI-H650	0.871

Cell Line	relative viability
CAL-12T	0.899
NCI-H1651	0.902
EPLC-272H	1.13
NCI-H23	0.661
NCI-H1792	0.718
NCI-H1355	0.914
NCI-H322M	0.981
NCI-H1437	1.22
NCI-H1755	0.984
NCI-H2085	0.864
HCC-15	0.924
PC-3 [JPC-3]	0.943
EKVX	1.11
LC-2-ad	0.869
NCI-H1563	1.16
NCI-H1944	1.19
NCI-H1975	1.16

Same assay, conditions: first compound 31.62 µM

Cell Line	relative viability
HARA	0.932
HCC-78	0.629
LCLC-97TM1	0.198
NCI-H2023	0.752
A-427	1.15
NCI-H460	0.717
NCI-H727	0.291
NCI-H1734	0.852
NCI-H520	0.961
NCI-H2405	0.727
SW 1573	0.776
201T	1.02
NCI-H1915	1.09
HCC-827	0.962
LXF-289	0.951
NCI-H2347	0.756
NCI-H650	0.921

Cell Line	relative viability
CAL-12T	0.828
NCI-H1651	0.885
EPLC-272H	1.19
NCI-H23	0.54
NCI-H1792	0.522
NCI-H1355	0.873
NCI-H322M	0.908
NCI-H1437	1.02
NCI-H1755	0.984
NCI-H2085	0.876
HCC-15	0.824
PC-3 [JPC-3]	0.914
EKVX	0.965
LC-2-ad	0.842
NCI-H1563	1.23
NCI-H1944	1.12
NCI-H1975	0.999

Same assay, conditions: first compound 100 µM

Cell Line	relative viability
HARA	1.02
HCC-78	0.547
LCLC-97TM1	0.162
NCI-H2023	0.605
A-427	1.14
NCI-H460	0.744
NCI-H727	0.283
NCI-H1734	0.905
NCI-H520	0.893
NCI-H2405	0.907
SW 1573	0.651
201T	1.11
NCI-H1915	1.1
HCC-827	0.981
LXF-289	1.01
NCI-H2347	1.08
NCI-H650	1.03

Cell Line	relative viability
CAL-12T	0.845
NCI-H1651	1.07
EPLC-272H	1.3
NCI-H23	0.51
NCI-H1792	0.456
NCI-H1355	0.866
NCI-H322M	0.891
NCI-H1437	1.17
NCI-H1755	0.985
NCI-H2085	0.639
HCC-15	0.899
PC-3 [JPC-3]	1.01
EKVX	1.13
LC-2-ad	0.909
NCI-H1563	1.07
NCI-H1944	1.22
NCI-H1975	0.853

Compound: C(C(=O)C(=O)O)Br [Bromopyruvate] + CS(=O)(=O)CCNCc1ccc(-c2ccc3ncnc(Nc4ccc(OCc5cccc(F)c5)c(Cl)c4)c3c2)o1 [Lapatinib] (partner 2 µM)
Experiment: as above
Conditions: first compound 1 µM
Outline: as §1

Cell Line	relative viability
HARA	0.825
HCC-78	1.04
NCI-H2023	0.803
A-427	1.08
NCI-H460	0.967
NCI-H727	1.13
NCI-H1734	1.08
NCI-H520	0.846
NCI-H2405	1.13
SW 1573	1.11
201T	1.03
NCI-H1915	0.95
HCC-827	0.205
LXF-289	0.967
NCI-H2347	0.897
NCI-H650	1.12
CAL-12T	0.669

Cell Line	relative viability
NCI-H1651	0.858
EPLC-272H	1.02
NCI-H23	1.05
NCI-H1792	0.949
NCI-H1355	0.978
NCI-H322M	0.573
NCI-H1437	0.845
NCI-H1755	0.988
NCI-H2085	0.761
HCC-15	0.868
PC-3 [JPC-3]	0.474
EKVX	0.218
LC-2-ad	0.977
NCI-H1563	0.88
NCI-H1944	0.826
NCI-H1975	0.876

Same assay, conditions: first compound 3.162 µM

Cell Line	relative viability
HARA	0.829
HCC-78	0.893
NCI-H2023	0.922
A-427	1.03
NCI-H460	0.881
NCI-H727	0.928
NCI-H1734	0.944
NCI-H520	0.966
NCI-H2405	1.12
SW 1573	1.03
201T	1.06
NCI-H1915	0.98
HCC-827	0.191
LXF-289	0.879
NCI-H2347	1.02
NCI-H650	1.16
CAL-12T	0.698

Cell Line	relative viability
NCI-H1651	0.909
EPLC-272H	1.06
NCI-H23	1.04
NCI-H1792	0.972
NCI-H1355	0.986
NCI-H322M	0.548
NCI-H1437	0.768
NCI-H1755	1.02
NCI-H2085	0.784
HCC-15	0.873
PC-3 [JPC-3]	0.44
EKVX	0.213
LC-2-ad	0.982
NCI-H1563	1.1
NCI-H1944	0.903
NCI-H1975	1.08

Same assay, conditions: first compound 10 µM

Cell Line	relative viability
HARA	0.707
HCC-78	0.702
LCLC-97TM1	0.864
NCI-H2023	0.743
A-427	1.01
NCI-H460	1.8
NCI-H727	0.862
NCI-H1734	1.26
NCI-H520	0.98
NCI-H2405	1.13
SW 1573	1.09
201T	1.03
NCI-H1915	0.976
HCC-827	0.167
LXF-289	0.935
NCI-H2347	1.18
NCI-H650	0.966

Cell Line	relative viability
CAL-12T	0.794
NCI-H1651	0.905
EPLC-272H	0.839
NCI-H23	1.16
NCI-H1792	1.06
NCI-H1355	1.06
NCI-H322M	0.485
NCI-H1437	1.1
NCI-H1755	1.02
NCI-H2085	0.771
HCC-15	0.849
PC-3 [JPC-3]	0.441
EKVX	0.343
LC-2-ad	0.933
NCI-H1563	0.902
NCI-H1944	0.932
NCI-H1975	1.01

Same assay, conditions: first compound 31.62 µM

Cell Line	relative viability
HARA	0.9
HCC-78	1.03
LCLC-97TM1	1.28
NCI-H2023	0.877
A-427	1.03
NCI-H460	1.01
NCI-H727	0.781
NCI-H1734	1.08
NCI-H520	0.766
NCI-H2405	0.965
SW 1573	1.05
201T	0.942
NCI-H1915	0.98
HCC-827	0.193
LXF-289	0.914
NCI-H2347	0.782
NCI-H650	0.885

Cell Line	relative viability
CAL-12T	0.748
NCI-H1651	0.764
EPLC-272H	0.916
NCI-H23	1.06
NCI-H1792	0.674
NCI-H1355	0.995
NCI-H322M	0.624
NCI-H1437	0.801
NCI-H1755	1.07
NCI-H2085	0.815
HCC-15	0.856
PC-3 [JPC-3]	0.468
EKVX	0.207
LC-2-ad	0.921
NCI-H1563	0.888
NCI-H1944	0.7
NCI-H1975	0.838

Same assay, conditions: first compound 100 µM

Cell Line	relative viability
HARA	0.844
HCC-78	0.591
LCLC-97TM1	0.82
NCI-H2023	0.793
A-427	1.04
NCI-H460	0.967
NCI-H727	0.86
NCI-H1734	1.12
NCI-H520	0.739
NCI-H2405	1.14
SW 1573	0.904
201T	1.02
NCI-H1915	0.991
HCC-827	0.214
LXF-289	0.959
NCI-H2347	1.15
NCI-H650	0.769

Cell Line	relative viability
CAL-12T	0.902
NCI-H1651	0.829
EPLC-272H	1.05
NCI-H23	1.04
NCI-H1792	0.835
NCI-H1355	0.965
NCI-H322M	0.612
NCI-H1437	0.804
NCI-H1755	1.19
NCI-H2085	0.707
HCC-15	0.844
PC-3 [JPC-3]	0.467
EKVX	0.211
LC-2-ad	0.971
NCI-H1563	0.938
NCI-H1944	0.869
NCI-H1975	0.833
